{"source": "paper PMC3989431", "about": "(Peptides, 2013)", "origin": "cited, not measured here", "tested_on": "H. zea pupae", "details": "earlier in vivo bioassay"}
{"substance": "AWFGPRLa", "values": [{"measurement": "in vivo activity", "value": "without in vivo activity"}]}
